In the supplement of paper PMC10307832:

What was measured:
Experiment in all cases: relative viability (nuclei count vs DMSO), 5 days (fraction); higher = more cells survive
XMD13-2 + Crizotinib = compound: C1CC1C(=O)NC2=NNC3=C2C=CC(=C3)C4=CC(=CC=C4)C(=O)NC5CC5 [XMD13-2] + C[C@@H](Oc1cc(-c2cnn(C3CCNCC3)c2)cnc1N)c1c(Cl)ccc(F)c1Cl [Crizotinib] (partner 1 µM)
In short: (§1)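 Cells from lung cancer lines were seeded into 1536-well plates and, one day later, dosed by pin tool. Treatments were either a single drug or a fixed dose of an anchor drug with five library-drug doses (not always all listed) in √10 steps. After 5 days, nuclei were stained in a one-step fixation (final 0.05% Triton X-100, 1% formaldehyde, 1 ug/ml Hoechst) and counted on 4× images, and relative viability is the treated-to-vehicle nuclei ratio, as the median of duplicate plates.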

Dasatinib + Bortezomib = compound: Cc1nc(Nc2ncc(C(=O)Nc3c(C)cccc3Cl)s2)cc(N2CCN(CCO)CC2)n1 [Dasatinib] + CC(C)C[C@H](NC(=O)[C@H](Cc1ccccc1)NC(=O)c1cnccn1)B(O)O [Bortezomib] (partner 0.002 µM)
In short: as §1

Dasatinib + Crizotinib = compound: Cc1nc(Nc2ncc(C(=O)Nc3c(C)cccc3Cl)s2)cc(N2CCN(CCO)CC2)n1 [Dasatinib] + C[C@@H](Oc1cc(-c2cnn(C3CCNCC3)c2)cnc1N)c1c(Cl)ccc(F)c1Cl [Crizotinib] (partner 1 µM)
In short: as §1

ALW-II-49-7 + Lapatinib = compound: Cc1ccc(C(=O)Nc2cccc(C(F)(F)F)c2)cc1Nc1cncc(C(N)=O)c1 [ALW-II-49-7] + CS(=O)(=O)CCNCc1ccc(-c2ccc3ncnc(Nc4ccc(OCc5cccc(F)c5)c(Cl)c4)c3c2)o1 [Lapatinib] (partner 2 µM)
In short: as §1

Cell Line | relative viability (XMD13-2 + Crizotinib; first compound 0.05 µM) | relative viability (XMD13-2 + Crizotinib; first compound 0.1581 µM) | relative viability (XMD13-2 + Crizotinib; first compound 0.5 µM) | relative viability (XMD13-2 + Crizotinib; first compound 1.581 µM) | relative viability (XMD13-2 + Crizotinib; first compound 5 µM) | relative viability (Dasatinib + Bortezomib; first compound 0.005 µM) | relative viability (Dasatinib + Bortezomib; first compound 0.01581 µM) | relative viability (Dasatinib + Bortezomib; first compound 0.05 µM) | relative viability (Dasatinib + Bortezomib; first compound 0.1581 µM) | relative viability (Dasatinib + Bortezomib; first compound 0.5 µM) | relative viability (Dasatinib + Crizotinib; first compound 0.005 µM) | relative viability (Dasatinib + Crizotinib; first compound 0.01581 µM) | relative viability (Dasatinib + Crizotinib; first compound 0.05 µM) | relative viability (Dasatinib + Crizotinib; first compound 0.1581 µM) | relative viability (Dasatinib + Crizotinib; first compound 0.5 µM) | relative viability (ALW-II-49-7 + Lapatinib; first compound 0.08 µM) | relative viability (ALW-II-49-7 + Lapatinib; first compound 0.253 µM) | relative viability (ALW-II-49-7 + Lapatinib; first compound 0.8 µM) | relative viability (ALW-II-49-7 + Lapatinib; first compound 2.53 µM) | relative viability (ALW-II-49-7 + Lapatinib; first compound 8 µM)
LXF-289 | 0.863 | 0.831 | 0.473 | 0.789 | 0.811 | 1.03 | 1.12 | 0.93 | 0.518 | 0.204 | 0.849 | 0.912 | 0.857 | 0.197 | 0.136 | 0.864 | 0.818 | 0.922 | 1.01 | 0.967
NCI-H23 | 0.759 | 0.518 | 0.506 | 0.411 | 0.423 | 0.958 | 0.812 | 0.904 | 0.677 | 0.519 | 0.409 | 0.425 | 0.385 | 0.304 | 0.213 | 0.88 | 1.1 | 1.35 | 1.02 | 1.01
NCI-H322M | 0.913 | 0.937 | 1.09 | 0.814 | 1.01 | 1.28 | 1.25 | 1.32 | 0.966 | 0.177 | 0.953 | 0.785 | 0.753 | 0.336 | 0.155 | 0.592 | 0.583 | 0.613 | 0.635 | 0.556
NCI-H460 | 1.25 | 0.951 | 0.99 | 0.949 | 0.873 | 0.97 | 0.79 | 0.701 | 0.736 | 0.49 | 0.729 | 0.602 | 0.432 | 0.243 | 0.218 | 0.834 | 0.701 | 1.03 | 0.936 | 0.528
NCI-H520 | 0.962 | 0.681 | 0.682 | 0.672 | 0.403 | 0.588 | 0.22 | 0.358 | 0.146 | 0.178 | 0.656 | 0.442 | 0.419 | 0.144 | 0.138 | 0.666 | 0.544 | – | 0.627 | 0.846
NCI-H596 | 1.05 | 0.916 | 0.98 | 0.884 | 1.05 | 0.928 | 0.815 | 0.826 | 0.525 | 0.515 | 0.966 | 0.811 | 0.637 | 0.519 | 0.315 | 1.03 | 1.1 | 1.13 | 1.02 | 0.978
NCI-H647 | 1.25 | 0.903 | 1.12 | 1.03 | 0.548 | 0.547 | 0.593 | 0.447 | 0.257 | 0.189 | 0.734 | 0.526 | 0.285 | 0.149 | 0.133 | 0.779 | 0.772 | 1.18 | 0.806 | 0.855
NCI-H650 | 0.838 | 0.836 | 0.803 | 0.638 | 0.74 | 0.867 | 0.939 | 0.73 | 0.559 | 0.451 | 0.741 | 0.61 | 0.632 | 0.444 | 0.3 | 0.843 | 0.843 | 0.915 | 0.841 | 0.662
NCI-H661 | 0.985 | 1.02 | 0.864 | 0.887 | 0.875 | 0.62 | 0.415 | 0.557 | 0.319 | 0.24 | 1.08 | 1.19 | 0.972 | 0.8 | 0.547 | 0.47 | 0.474 | 0.383 | – | 0.483
NCI-H727 | 0.938 | 0.697 | 1 | 0.771 | 0.687 | 0.606 | 0.663 | 0.554 | 0.463 | 0.258 | 0.707 | 0.548 | 0.491 | 0.241 | 0.223 | 0.984 | 1.08 | 0.872 | 0.965 | 0.871
NCI-H838 | 0.917 | 0.891 | 0.814 | 0.883 | 0.848 | 0.747 | 0.395 | 0.445 | 0.198 | 0.202 | 0.571 | 0.577 | 0.306 | 0.23 | 0.202 | 0.941 | 0.887 | 0.797 | 1.04 | 0.853
NCI-H1299 | 1.02 | 0.954 | 0.99 | 0.948 | 0.904 | 1.04 | 1.02 | 1.14 | 0.612 | 0.485 | 0.966 | 0.975 | 0.779 | 0.274 | 0.256 | 0.986 | 1.06 | 0.916 | 0.839 | 0.763
NCI-H1355 | 1.07 | 1.12 | 1.09 | 1.01 | 0.941 | 1.12 | 1.11 | 1.06 | 0.981 | 0.779 | 1.04 | 0.781 | 0.983 | 0.585 | 0.443 | 0.959 | 1.13 | 0.97 | 1.02 | 0.934
NCI-H1437 | 0.874 | 1.02 | 0.902 | 0.886 | 1.07 | 0.509 | 0.363 | 0.469 | 0.487 | 0.138 | 0.868 | 0.894 | 1.1 | 0.79 | 0.251 | 0.786 | 0.731 | – | 0.786 | 0.749
NCI-H1563 | 0.91 | 0.898 | 0.77 | 0.852 | 1.02 | 0.703 | 0.607 | 0.632 | 0.647 | 0.562 | 0.803 | 0.673 | 0.679 | 0.592 | 0.577 | 1.07 | 0.92 | 1.16 | 0.837 | 0.897
NCI-H1650 | 1.31 | 0.861 | 1.02 | 0.989 | 1.16 | 0.227 | 0.195 | 0.193 | 0.217 | 0.2 | 0.801 | 0.619 | 0.456 | 0.303 | 0.239 | 0.955 | 0.846 | 0.854 | 1.04 | 0.753
NCI-H1651 | 0.946 | 0.811 | 0.886 | 0.898 | 0.863 | 0.947 | 0.873 | 0.795 | 0.859 | 0.825 | 0.874 | 0.776 | 0.841 | 0.768 | 0.704 | 0.719 | 0.879 | 0.672 | 0.776 | 0.794
NCI-H1666 | 0.832 | 0.989 | 1.09 | 0.971 | 0.855 | 0.763 | 0.663 | 0.718 | 0.582 | 0.288 | 1.01 | 0.878 | 0.783 | 0.561 | 0.247 | 0.533 | 0.674 | 0.695 | 0.831 | 0.652
NCI-H1703 | 1.11 | 0.997 | 0.874 | 0.422 | 0.465 | 0.285 | 0.22 | 0.247 | 0.18 | 0.121 | 0.652 | 0.18 | 0.203 | 0.154 | 0.108 | 1.17 | 1.14 | 0.906 | 0.448 | 0.363
NCI-H1734 | 0.91 | 0.655 | 0.66 | 0.594 | 0.474 | 0.754 | 0.508 | 0.79 | 0.425 | 0.561 | 0.553 | 0.485 | 0.515 | 0.301 | 0.35 | 1.07 | 1.07 | 1.05 | 1.04 | 0.898
NCI-H1755 | 0.982 | 0.85 | 0.861 | 0.856 | 0.922 | 0.842 | 0.759 | 0.645 | 0.538 | 0.297 | 0.696 | 0.657 | 0.365 | 0.202 | 0.174 | 0.904 | 1.04 | 1.04 | 1.04 | 0.608
NCI-H1792 | 1.22 | 0.929 | 0.979 | 0.869 | 1.12 | 0.932 | 0.897 | 0.898 | 0.681 | 0.505 | 0.938 | 0.916 | 0.874 | 0.753 | 0.51 | 0.673 | 0.881 | 0.943 | 0.98 | 0.774
NCI-H1915 | 0.966 | 0.931 | 0.902 | 0.967 | 0.941 | 0.982 | 0.809 | 0.876 | 0.593 | 0.298 | 0.828 | 0.764 | 0.638 | 0.284 | 0.24 | 0.949 | 1.01 | 0.914 | 0.848 | 0.644
NCI-H1975 | 1.21 | 1.02 | 0.91 | 0.954 | 1.14 | 0.393 | 0.279 | 0.348 | 0.212 | 0.22 | 0.858 | 0.852 | 0.612 | 0.404 | 0.272 | 0.742 | 0.835 | 0.763 | 0.994 | 0.87
NCI-H1993 | 0.913 | 0.844 | 0.935 | 0.768 | 0.69 | 0.743 | 0.851 | 1.34 | 0.847 | 0.497 | 0.881 | 0.658 | 0.579 | 0.501 | 0.465 | 0.663 | 0.811 | 0.863 | 0.825 | 0.695
NCI-H2009 | 1.09 | 1.03 | 1.05 | 1 | 1.12 | 1.13 | 0.97 | 0.884 | 0.354 | 0.173 | 0.947 | 0.936 | 0.684 | 0.314 | 0.141 | 0.913 | 1.02 | 0.819 | 0.728 | 0.466
